Data taken from US20150218212A1, “FLUORINATED EPOXYKETONE-BASED TETRAPEPTIDE COMPOUNDS AND USES THEREOF AS PROTEASOME INHIBITORS” (FLUORINOV PHARMA INC., priority 2012, published 2015).

Columns and labels:
Assay type in all cases: cell-based, human
NCI-H460 = experiment: NCI screening panel, NCI-H460 (Non-Small Cell Lung Cancer)
Experimental: (§1) Representative compounds of Formula I were screened using the National Cancer Institute (NCI) screening panel, which consists of a panel of human tumor cell lines, representing leukemia, melanoma, and cancers of the lung, colon, ovary, breast, prostate and renal system.
(§2) After 24 h, two plates of each cell line are fixed in situ with TCA, to represent a measurement of the cell population for each cell line at the time of drug addition (Tz). Experimental drugs are solubilised in dimethyl sulfoxide at 400-fold the desired final maximum test concentration and stored frozen prior to use. At the time of drug addition, an aliquot of frozen concentrate is thawed and diluted to twice the desired final maximum test concentration with complete medium containing 50 μg/mL gentamicin. Additional four, 10-fold or ½ log serial dilutions are made to provide a total of five drug concentrations plus control. Aliquots of 100 μl of these different drug dilutions are added to the appropriate microtiter wells already containing 100 μl of medium, resulting in the required final drug concentrations.
(§3) Following drug addition, the plates are incubated for an additional 48 h at 37° C., 5% CO2, 95% air, and 100% relative humidity. For adherent cells, the assay is terminated by the addition of cold TCA (trichloroacetic acid). Cells are fixed in situ by the gentle addition of 50 μl of cold 50% (w/v) TCA (final concentration, 10% TCA) and incubated for 60 minutes at 4° C. The supernatant is discarded, and the plates are washed five times with tap water and air dried. Sulforhodamine B (SRB) solution (100 μl) at 0.4% (w/v) in 1% acetic acid is added to each well, and plates are incubated for 10 minutes at room temperature. After staining, unbound dye is removed by washing five times with 1% acetic acid and the plates are air dried. Bound stain is subsequently solubilised with 10 mM trizma base, and the absorbance is read on an automated plate reader at a wavelength of 515 nm. For suspension cells, the methodology is the same except that the assay is terminated by fixing settled cells at the bottom of the wells by gently adding 50 μl of 80% TCA (final concentration, 16% TCA). Using the seven absorbance measurements [time zero, (Tz), control growth, (C), and test growth in the presence of drug at the five concentration levels (Ti)], the percentage growth is calculated at each of the drug concentrations levels. Percentage growth inhibition is calculated as: [(Ti−Tz)/(C−Tz)]×100 for concentrations for which Ti>/=Tz and [(Ti−Tz)/Tz]×100 for concentrations for which Ti<Tz.
(§4) Three dose response parameters are calculated for each experimental agent. Growth inhibition of 50% (GI50) is calculated from [(Ti−Tz)/(C−Tz)]×100=50, which is the drug concentration resulting in a 50% reduction in the net protein increase (as measured by SRB staining) in control cells during the drug incubation. The drug concentration resulting in total growth inhibition (TGI) is calculated from Ti=Tz. The LC50 (concentration of drug resulting in a 50% reduction in the measured protein at the end of the drug treatment as compared to that at the beginning) indicating a net loss of cells following treatment is calculated from [(Ti−Tz)/Tz]×100=−50. Values are calculated for each of these three parameters if the level of activity is reached. However, if the effect is not reached or is exceeded, the value for that parameter is expressed as greater or less than the maximum or minimum concentration tested.

LOX IMVI = experiment: NCI screening panel, LOX IMVI (Melanoma)
Experimental: as §1, §2, §3, §4

IGROV1 = experiment: NCI screening panel, IGROV1 (Ovarian Cancer)
Experimental: as §1, §2, §3, §4

TK-10 = experiment: NCI screening panel, TK-10 (Renal Cancer)
Experimental: as §1, §2, §3, §4

OVCAR-4 = experiment: NCI screening panel, OVCAR-4 (Ovarian Cancer)
Experimental: as §1, §2, §3, §4

SK-OV-3 = experiment: NCI screening panel, SK-OV-3 (Ovarian Cancer)
Experimental: as §1, §2, §3, §4

MDA-MB-231/ATCC = experiment: NCI screening panel, MDA-MB-231/ATCC (Breast Cancer)
Experimental: as §1, §2, §3, §4

M14 = experiment: NCI screening panel, M14 (Melanoma)
Experimental: as §1, §2, §3, §4

T-47D = experiment: NCI screening panel, T-47D (Breast Cancer)
Experimental: as §1, §2, §3, §4

SF-268 = experiment: NCI screening panel, SF-268 (CNS Cancer)
Experimental: as §1, §2, §3, §4

MDA-MB-468 = experiment: NCI screening panel, MDA-MB-468 (Breast Cancer)
Experimental: as §1, §2, §3, §4

NCI/ADR-RES = experiment: NCI screening panel, NCI/ADR-RES (Ovarian Cancer)
Experimental: as §1, §2, §3, §4

HCC-2998 = experiment: NCI screening panel, HCC-2998 (Colon Cancer)
Experimental: as §1, §2, §3, §4

COLO 205 = experiment: NCI screening panel, COLO 205 (Colon Cancer)
Experimental: as §1, §2, §3, §4

CC(C)C[C@H](NC(=O)[C@H](COC(F)F)NC(=O)CN1CCOCC1)C(=O)N[C@@H](COC(F)F)C(=O)N[C@@H](CC(C)C)C(=O)[C@@]1(C)CO1 [Example 1, (2S)—N-[(1S)-1-(difluoromethoxymethyl)-2-[[(1S)-3-methyl-1-[(2R)-2-methyloxirane-2-carbonyl]butyl]amino]-2-oxo-ethyl]-2-[[(2S)-3-(difluoromethoxy)-2-[(2-morpholinoacetyl)amino]propanoyl]amino]-4-methyl-pentanamide]
Log10GI50 (NCI-H460): −7.30
Log10LC50 (NCI-H460): >−4.00
Log10TGI50 (NCI-H460): −6.39
Log10GI50 (LOX IMVI): −7.85
Log10LC50 (LOX IMVI): −7.16
Log10TGI50 (LOX IMVI): −7.51
Log10GI50 (IGROV1): −7.43
Log10LC50 (IGROV1): >−4.00
Log10TGI50 (IGROV1): −6.40
Log10GI50 (TK-10): −6.53
Log10LC50 (TK-10): >−4.00
Log10TGI50 (TK-10): −5.17
Log10GI50 (OVCAR-4): −7.77
Log10LC50 (OVCAR-4): >−4.00
Log10TGI50 (OVCAR-4): −6.60
Log10GI50 (SK-OV-3): −7.15
Log10TGI50 (SK-OV-3): −6.36
Log10GI50 (MDA-MB-231/ATCC): −7.52
Log10LC50 (MDA-MB-231/ATCC): >−4.00
Log10TGI50 (MDA-MB-231/ATCC): −6.76
Log10GI50 (M14): −7.25
Log10LC50 (M14): >−4.00
Log10TGI50 (M14): −6.31
Log10GI50 (T-47D): −7.94
Log10LC50 (T-47D): −7.11
Log10TGI50 (T-47D): −7.53
Log10GI50 (SF-268): −7.65
Log10LC50 (SF-268): >−4.00
Log10TGI50 (SF-268): −7.17
Log10GI50 (MDA-MB-468): −7.55
Log10LC50 (MDA-MB-468): >−4.00
Log10TGI50 (MDA-MB-468): −6.89
Log10GI50 (NCI/ADR-RES): −5.10
Log10LC50 (NCI/ADR-RES): >−4.00
Log10TGI50 (NCI/ADR-RES): >−4.00
Log10GI50 (HCC-2998): −7.74
Log10LC50 (HCC-2998): −7.16
Log10TGI50 (HCC-2998): −7.45
Log10GI50 (COLO 205): −7.39
Log10LC50 (COLO 205): −5.59
Log10TGI50 (COLO 205): −6.72

CC(C)C[C@H](NC(=O)[C@H](COC(F)F)NC(=O)CN1CCOCC1)C(=O)N[C@@H](Cc1ccccc1)C(=O)N[C@@H](CC(C)C)C(=O)[C@@]1(C)CO1 [Example 2, (2S)-N-[(1S)-1-benzyl-2-[[(1S)-3-methyl-1-[(2R)-2-methyloxirane-2-carbonyl]butyl]-amino]-2-oxo-ethyl]-2-[[(2S)-3-(difluoromethoxy)-2-[(2-morpholinoacetyl)amino]propanoyl]amino]-4-methyl-pentanamide]
Log10GI50 (NCI-H460): −7.37
Log10LC50 (NCI-H460): >−4.00
Log10TGI50 (NCI-H460): −6.57
Log10GI50 (LOX IMVI): <−8.00
Log10LC50 (LOX IMVI): −7.21
Log10TGI50 (LOX IMVI): −7.62
Log10GI50 (IGROV1): −7.59
Log10LC50 (IGROV1): >−4.00
Log10TGI50 (IGROV1): −6.66
Log10GI50 (TK-10): −7.47
Log10LC50 (TK-10): >−4.00
Log10TGI50 (TK-10): −5.73
Log10GI50 (OVCAR-4): −7.84
Log10LC50 (OVCAR-4): >−4.00
Log10TGI50 (OVCAR-4): −6.49
Log10GI50 (SK-OV-3): −7.15
Log10LC50 (SK-OV-3): >−4.00
Log10TGI50 (SK-OV-3): −6.21
Log10GI50 (MDA-MB-231/ATCC): −7.63
Log10LC50 (MDA-MB-231/ATCC): −4.37
Log10TGI50 (MDA-MB-231/ATCC): −6.79
Log10GI50 (M14): −7.39
Log10LC50 (M14): >−4.00
Log10TGI50 (M14): −6.26
Log10GI50 (T-47D): <−8.00
Log10TGI50 (T-47D): −7.55
Log10GI50 (SF-268): −7.81
Log10LC50 (SF-268): >−4.00
Log10TGI50 (SF-268): −7.20
Log10GI50 (MDA-MB-468): −7.75
Log10LC50 (MDA-MB-468): −4.63
Log10TGI50 (MDA-MB-468): −7.13
Log10GI50 (NCI/ADR-RES): −5.80
Log10LC50 (NCI/ADR-RES): >−4.00
Log10TGI50 (NCI/ADR-RES): >−4.00
Log10GI50 (HCC-2998): −7.77
Log10LC50 (HCC-2998): −7.15
Log10TGI50 (HCC-2998): −7.46
Log10GI50 (COLO 205): −7.44
Log10LC50 (COLO 205): −5.93
Log10TGI50 (COLO 205): −6.69
